molecular target: T1, human GlyT1c transporter (Homo sapiens, UniProt P48067); test: Radioligand binding assay using recombinant CHO cell membranes expressing human GlyT1; details: radioligand binding to human GlyT1c transporter-expressing membranes
T1 construct: expressed in transfected cells; host or cells: CHO cells (recombinant; line hGlyT1c_5_CHO is named for the uptake assay)
T1 sequence (P48067 1-706): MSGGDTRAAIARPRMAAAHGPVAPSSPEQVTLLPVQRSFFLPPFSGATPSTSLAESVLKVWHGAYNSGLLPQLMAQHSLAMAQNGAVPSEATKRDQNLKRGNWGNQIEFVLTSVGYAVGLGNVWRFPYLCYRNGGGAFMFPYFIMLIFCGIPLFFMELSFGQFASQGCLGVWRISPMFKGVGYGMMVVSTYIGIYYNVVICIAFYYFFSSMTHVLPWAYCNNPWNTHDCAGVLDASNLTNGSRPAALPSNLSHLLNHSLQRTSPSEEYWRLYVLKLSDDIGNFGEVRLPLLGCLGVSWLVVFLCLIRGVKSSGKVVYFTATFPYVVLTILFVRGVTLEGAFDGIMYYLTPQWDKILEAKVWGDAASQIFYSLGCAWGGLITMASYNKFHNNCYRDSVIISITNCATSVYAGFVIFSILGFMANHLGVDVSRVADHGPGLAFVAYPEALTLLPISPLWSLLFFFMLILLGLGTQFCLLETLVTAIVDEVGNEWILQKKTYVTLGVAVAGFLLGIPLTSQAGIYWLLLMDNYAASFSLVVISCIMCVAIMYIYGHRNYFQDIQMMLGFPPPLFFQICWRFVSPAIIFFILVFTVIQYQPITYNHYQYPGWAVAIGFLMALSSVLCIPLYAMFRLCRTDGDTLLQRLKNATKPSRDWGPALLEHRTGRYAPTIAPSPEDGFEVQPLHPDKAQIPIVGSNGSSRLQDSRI
Source text: 2. Radioligand binding assays using recombinant CHO cell membranes expressing human GlyT1: […]

| Compound | Ki [nM] |
| --- | --- |
| Cn1cnc(S(=O)(=O)N2C[C@H](Nc3cc(OC4CCCC4)ncn3)[C@@H](c3ccc(F)cc3)C2)c1 [Example 720, 6-(cyclopentyloxy)-N-{(3R,4S)-4-(4-fluorophenyl)-1-[(1-methyl-1H-imidazol-4-yl)sulfonyl]pyrrolidin-3-yl}pyrimidin-4-amine] | ≤ 100 |
| Cn1cnc(S(=O)(=O)N2CC(Nc3ccc(Cl)c(C(F)(F)F)c3)C(c3ncco3)C2)c1 (stereo not drawn) [Example 710, N-[4-chloro-3-(trifluoromethyl)phenyl]-1-[(1-methyl-1H-imidazol-4-yl)sulfonyl]-4-(1,3-oxazol-2-yl)pyrrolidin-3-amine] | ≤ 1000 |
| Cn1cnc(S(=O)(=O)N2C[C@@H](C(=O)Nc3cccc(Cl)c3)[C@H](c3ccc(F)cc3)C2)c1 (relative stereo) [Example 304, trans-N-(3-chlorophenyl)-4-(4-fluorophenyl)-1-[(1-methyl-1H-imidazol-4-yl)sulfonyl]pyrrolidine-3-carboxamide] | ≤ 1000 |
| Cn1cnc(S(=O)(=O)N2C[C@@H](NCc3ccc(C(F)(F)F)cc3Cl)[C@H](c3ccccn3)C2)c1 (relative stereo) [Example 320, trans-N-[2-chloro-4-(trifluoromethyl)benzyl]-1-[(1-methyl-1H-imidazol-4-yl)sulfonyl]-4-(pyridin-2-yl)pyrrolidin-3-amine] | ≤ 10 |
| Cc1ccc2sc(CN[C@H]3CN(S(=O)(=O)c4cn(C)cn4)C[C@@H]3c3ccccc3)cc2c1 [Example 437, (3R,4S)-N-[(5-methyl-1-benzothiophen-2-yl)methyl]-1-[(1-methyl-1H-imidazol-4-yl)sulfonyl]-4-phenylpyrrolidin-3-amine] | ≤ 100 |
| Cn1cnc(S(=O)(=O)N2C[C@@H](NC(=O)c3ccc(C(F)(F)F)cc3Cl)[C@H](c3ccccc3)C2)c1 (relative stereo) [Example 60, 2-chloro-N-{trans-1-[(1-methyl-1H-imidazol-4-yl)sulfonyl]-4-phenylpyrrolidin-3-yl}-4-(trifluoromethyl)benzamide] | ≤ 100 |
| Cn1cnc(S(=O)(=O)N2C[C@@H](CNc3ccc(C(F)(F)F)c(Cl)c3)[C@H](c3ccc(F)cc3)C2)c1 (relative stereo) [Example 311, 3-chloro-N-({trans-4-(4-fluorophenyl)-1-[(1-methyl-1H-imidazol-4-yl)sulfonyl]pyrrolidin-3-yl}methyl)-4-(trifluoromethyl)aniline] | ≤ 1000 |
| Cc1cccc(N[C@@H]2CN(S(=O)(=O)c3cn(C)cn3)C[C@H]2C2CCCOC2)c1 (relative stereo) [Example 781, trans-1-[(1-methyl-1H-imidazol-4-yl)sulfonyl]-N-(3-methylphenyl)-4-(tetrahydro-2H-pyran-3-yl)pyrrolidin-3-amine] | ≤ 10000 |
| Cc1cccc(C(=O)[C@@H]2CN(S(=O)(=O)c3cn(C)cn3)C[C@H]2c2ccc(F)cc2)c1 (relative stereo) [Example 300, {trans-4-(4-fluorophenyl)-1-[(1-methyl-1H-imidazol-4-yl)sulfonyl]pyrrolidin-3-yl}(3-methylphenyl)methanone] | ≤ 1000 |
| Cn1cnc(S(=O)(=O)N2C[C@@H](Nc3ccncc3)[C@H](c3ccc(F)cc3)C2)c1 (relative stereo) [Example 177, N-{trans-4-(4-fluorophenyl)-1-[(1-methyl-1H-imidazol-4-yl)sulfonyl]pyrrolidin-3-yl}pyridin-4-amine] | ≤ 10000 |
| Cc1cccc(NC[C@@H]2CN(S(=O)(=O)c3cn(C)cn3)C[C@H]2c2ccc(F)cc2)c1 (relative stereo) [Example 334, N-({Trans-4-(4-fluorophenyl)-1-[(1-methyl-1H-imidazol-4-yl)sulfonyl]pyrrolidin-3-yl}methyl)-3-methylaniline] | ≤ 1000 |
| Cn1cnc(S(=O)(=O)N2C[C@H](Nc3cccc(C(F)(F)F)c3)[C@@H](c3ccccc3)C2)c1 [Example 397, (3R,4S)-1-[(1-methyl-1H-imidazol-4-yl)sulfonyl]-4-phenyl-N-[3-(trifluoromethyl)phenyl]pyrrolidin-3-amine] | ≤ 10 |
| Cn1cnc(S(=O)(=O)N2C[C@@H](C(=O)Nc3ccc(F)c(OC(F)(F)F)c3)[C@H](c3ccc(F)cc3)C2)c1 (relative stereo) [Example 370, Trans-4-(4-fluorophenyl)-N-[4-fluoro-3-(trifluoromethoxy)phenyl]-1-[(1-methyl-1H-imidazol-4-yl)sulfonyl]pyrrolidine-3-carboxamide] | ≤ 1000 |
| Cn1cnc(S(=O)(=O)N2C[C@@H](C(=O)NCc3ccccn3)[C@H](c3ccc(F)cc3)C2)c1 (relative stereo) [Example 634, Trans-4-(4-fluorophenyl)-1-[(1-methyl-1H-imidazol-4-yl)sulfonyl] -N-(pyridin-2-ylmethyl)pyrrolidine-3-carboxamide] | ≤ 10000 |
| CC(C)(C)OC(=O)N[C@@H]1CN(S(=O)(=O)c2ccccc2C#N)C[C@H]1c1ccccc1 (relative stereo) [Example 523, tert-butyl {trans-1-[(2-cyanophenyl)sulfonyl]-4-phenylpyrrolidin-3-yl}carbamate] | ≤ 10000 |
| Cn1cnc(S(=O)(=O)N2C[C@H](Nc3cc(OC4CCCCC4)ncn3)[C@@H](c3ccc(F)cc3)C2)c1 [Example 721, 6-(cyclohexyloxy)-N-{(3R,4S)-4-(4-fluorophenyl)-1-[(1-methyl-1H-imidazol-4-yl)sulfonyl]pyrrolidin-3-yl}pyrimidin-4-amine] | ≤ 100 |
| CCCCNC[C@@H]1CN(S(=O)(=O)c2cn(C)cn2)C[C@H]1c1ccc(F)cc1 (relative stereo) [Example 595, N-({trans-4-(4-fluorophenyl)-1-[(1-methyl-1H-imidazol-4-yl)sulfonyl]pyrrolidin-3-yl}methyl)butan-1-amine] | ≤ 10000 |
| CCS(=O)(=O)N1C[C@@H](Nc2cccc(C#N)c2)[C@H](c2ccccc2)C1 (relative stereo) [Example 131, 3-{[trans-1-(ethylsulfonyl)-4-phenylpyrrolidin-3-yl]amino}benzonitrile] | > 10000 |
| Cn1cnc(S(=O)(=O)N2C[C@@H](NCc3ccccn3)[C@H](c3ccc(F)cc3)C2)c1 (relative stereo) [Example 268, trans-4-(4-fluorophenyl)-1-[(1-methyl-1H-imidazol-4-yl)sulfonyl]-N-(pyridin-2-ylmethyl)pyrrolidin-3-amine] | ≤ 10000 |
| CCCCN(CCCC)C(=O)[C@@H]1CN(S(=O)(=O)c2cn(C)cn2)C[C@H]1c1ccc(F)cc1 (relative stereo) [Example 636, Trans-N,N-dibutyl-4-(4-fluorophenyl)-1-[(1-methyl-1H-imidazol-4-yl)sulfonyl]pyrrolidine-3-carboxamide] | ≤ 1000 |
| Cn1cnc(S(=O)(=O)N2C[C@H](OCC(=O)NCC(F)F)[C@@H](c3ccc(F)cc3)C2)c1 [Example 797, N-(2,2-difluoroethyl)-2-({(3R,4S)-4-(4-fluorophenyl)-1-[(1-methyl-1H-imidazol-4-yl)sulfonyl]pyrrolidin-3-yl}oxy)acetamide] | ≤ 10000 |
| Cn1cnc(S(=O)(=O)N2C[C@@H](NC(=O)c3cc(Cl)cc(Cl)c3)[C@H](c3ccc(F)cc3)C2)c1 (relative stereo) [Example 65, 3,5-dichloro-N-{trans-4-(4-fluorophenyl)-1-[(1-methyl-1H-imidazol-4-yl)sulfonyl]pyrrolidin-3-yl}benzamide] | ≤ 1000 |
| Cn1cnc(S(=O)(=O)N2C[C@@H](Nc3cc(F)cc(Cl)c3)[C@H](c3ccccc3)C2)c1 (relative stereo) [Example 225, trans-N-(3-chloro-5-fluorophenyl)-1-[(1-methyl-1H-imidazol-4-yl)sulfonyl]-4-phenylpyrrolidin-3-amine] | ≤ 10000 |
| Cn1cnc(S(=O)(=O)N2C[C@@H](CNc3ccc(C(F)(F)F)cc3)[C@H](c3ccc(F)cc3)C2)c1 (relative stereo) [Example 291, N-({trans-4-(4-fluorophenyl)-1-[(1-methyl-1H-imidazol-4-yl)sulfonyl]pyrrolidin-3-yl}methyl)-4-(trifluoromethyl)aniline] | ≤ 100 |
| Cn1cnc(S(=O)(=O)N2C[C@@H](NCc3ccc(Cl)cc3Cl)[C@H](c3ccc(F)cc3)C2)c1 (relative stereo) [Example 279, trans-N-(2,4-dichlorobenzyl)-4-(4-fluorophenyl)-1-[(1-methyl-1H-imidazol-4-yl)sulfonyl]pyrrolidin-3-amine] | ≤ 10000 |
| CC(C)Oc1cccc(NC2CN(S(=O)(=O)c3cn(C)cn3)CC2c2ccc(F)cc2)c1 (stereo not drawn) [Example 349, 4-(4-fluorophenyl)-1-[(1-methyl-1H-imidazol-4-yl)sulfonyl]-N-[3-(propan-2-yloxy)phenyl]pyrrolidin-3-amine] | ≤ 100 |
| Cn1cnc(S(=O)(=O)N2C[C@@H](Nc3ccc(Cl)c(OC(F)(F)F)c3)[C@H](c3ccccc3)C2)c1 (relative stereo) [Example 299, trans-N-[4-chloro-3-(trifluoromethoxy)phenyl]-1-[(1-methyl-1H-imidazol-4-yl)sulfonyl]-4-phenylpyrrolidin-3-amine] | ≤ 1000 |

— EP2970215B1, “PYRROLIDINE DERIVATIVES, PHARMACEUTICAL COMPOSITIONS CONTAINING THEM, AND THEIR USE IN THERAPY” (AbbVie Deutschland GmbH & Co. KG, priority 2013, dated 2014)
